Source: PubChem BioAssay (NCI)
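Test compounds were applied to cells in 96-well plates for 48 hours at 5 doses. At the TGI there is no net growth.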

Columns and labels:
Test in all cases: NCI tumour cell line growth inhibition, 48 h
DLD-1 colon = tested on: DLD-1 colon
XF 498 CNS = tested on: XF 498 CNS
786-0 renal = tested on: 786-0 renal
M19-MEL melanoma = tested on: M19-MEL melanoma
P388 leukemia = tested on: P388 leukemia
P388/ADR leukemia = tested on: P388/ADR leukemia
SN12K1 renal = tested on: SN12K1 renal
LXFL 529 NSCLC = tested on: LXFL 529 NSCLC

Compound	TGI (DLD-1 colon) [µM]	TGI (XF 498 CNS) [µM]	TGI (786-0 renal) [µM]	TGI (M19-MEL melanoma) [µM]	TGI (P388 leukemia) [µM]	TGI (P388/ADR leukemia) [µM]	TGI (SN12K1 renal) [µM]	TGI (LXFL 529 NSCLC) [µM]
CC1CC2=C(S(=O)(=O)c3ccccc3)CC(S(=O)(=O)c3ccccc3)(S(=O)(=O)c3ccccc3)CC21 (configuration not stated)	> 100	> 100	–	–	–	–	–	–
C/C(=N/NC(N)=S)c1ccc[nH]1	–	–	> 100	–	–	–	–	–
CCOC(=O)CNC(=O)N(CC)C12CC3CC(CC(C3)C1)C2	44.9	342	–	380	260	421	181	–
COc1ccc(S(=O)(=O)c2ccccc2[N+](=O)[O-])cc1	> 100	–	–	> 100	–	–	–	> 100
COCc1nc2c(OC)c(-c3nc4nc(N5CCN(C)CC5)ccc4[nH]3)cc(OC)c2n1C	–	–	> 100	–	–	–	–	–
Clc1ccc(C[P+](c2ccccc2)(c2ccccc2)c2ccccc2)c(Cl)c1	–	4.4	–	11.5	–	–	–	12.5
CCOC(=O)c1ccc(N[C@@H]2c3cc4c(cc3C(c3cc(OC)c(O)c(OC)c3)[C@H]3C(=O)OCC32)OCO4)cc1O (some centres not stated)	4.58	16.9	–	> 55.1	0.902	0.324	11.3	–
